Measured values published in patent publication US20240360107A1, “AN EIF4A INHIBITOR WITH A NOVEL MECHANISM OF ACTION” (ARIZONA BOARD OF REGENTS ON BEHALF OF THE UNIVERSITY OF …, priority 2021, published 2024).
“Also recorded” adds a separate entry of the source.

Legend:
[1] = target: T1, eIF4A (Homo sapiens, UniProt P60842); experiment: Cellular Thermal Shift Assay (CETSA) in A549 cells; assay type: cell-based; design: endogenous in cells; host or cells: A549 cells; details: 90 min, 55° C., silvestrol 100 nM
Protocol: In CETSA, thermal stability of a protein is assessed by heating cells and then separating insoluble, aggregated, or denatured proteins from soluble proteins through supernatant/pellet fractionation. Levels of the protein of interest (eIF4A) remaining in the soluble fraction are then measured by western blot. The principle of CETSA is similar to differential scanning fluorimetry (DSF), in that thermal stability and solubility of a protein increases upon binding a ligand.
Cellular Thermal Shift Assay (CETSA). A549 cells were seeded into wells in 6-well plates and on the following day were exposed to 28 or silvestrol (100 nM) for 90 min. Cells were harvested, resuspended in 50 μL DMEM, and dispensed into thin-walled PCR tubes. Cells were subjected to 3 min of heat at 55° C. in a thermocycler (miniPCR). After heating, cells were left to cool for 3 min and then snap-frozen on dry ice. Cells were subjected to 3 rapid freeze thaws with 15 seconds of vortexing after each thaw. After the first thaw, 1 μL of a dissolved Pierce protease inhibitor tablet (ThermoFisher—A32963) was added to the cell lysate. Cell lysates were centrifuged at 20,000×g for 20 min. […] All immunoblot images were taken using the Azure 600 imaging system (Azure Biosystems) and analyzed using ImageJ 1.51s (NIH). […]
Target sequence in this assay (P60842 2-406): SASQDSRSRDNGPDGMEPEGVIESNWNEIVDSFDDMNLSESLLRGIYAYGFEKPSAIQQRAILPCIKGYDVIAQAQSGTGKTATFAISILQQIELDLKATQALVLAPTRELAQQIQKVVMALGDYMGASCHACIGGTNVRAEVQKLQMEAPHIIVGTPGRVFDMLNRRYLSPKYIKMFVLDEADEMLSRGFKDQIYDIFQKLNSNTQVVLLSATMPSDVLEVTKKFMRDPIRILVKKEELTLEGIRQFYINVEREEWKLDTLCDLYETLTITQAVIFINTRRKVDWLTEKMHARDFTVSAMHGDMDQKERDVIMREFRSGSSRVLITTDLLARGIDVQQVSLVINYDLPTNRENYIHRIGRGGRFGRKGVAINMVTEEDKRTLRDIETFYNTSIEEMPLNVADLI

[2] = target: T1, eIF4A; experiment: MANT-ATP fluorescence polarization assay; assay type: binding; design: 6xHis with TEV protease site (N, cleaved yes); made in house; host or cells: E. coli BL21-CodonPlus; details: compound 200 μM or ADP 1 mM; MANT-ATP 100 nM
Protocol: Additional biochemical testing was performed on compound 28 to investigate its mechanism of eIF4A inhibition. Initially, kinetics experiments were repeated with compound 28, and the results for compound 28 matched those of compound 1 (FIG. 5D, 4A). Upon addition of compound 28, Km and Vmax of eIF4A decreased with respect to ATP. With respect to RNA, eIF4A Km […] and Vmax remained constant. […] Fluorescence polarization (FP) assays were utilized to confirm this mechanism of inhibition by testing the ability of compound 28 to compete fluorescent substrates off eIF4A. First, an FP assay was performed with MANT-ATP, a fluorescent, non-hydrolysable ATP analog, as the substrate.
MANT-ATP fluorescence polarization assay. Recombinant eIF4A (15 μM) was added to a low-volume black 384 well plate (Greiner). Yeast RNA (0.25 mg/mL) was added along with compound (200 μM) or ADP (1 mM) and the plate was incubated for 20 min. MANT-ATP was added (100 nM) and the plate was incubated for 30 min before fluorescence polarization was read at 355 nm:448 nm (Ex:Em) on a SpectraMax iD5 plate reader (Molecular Devices).
Target sequence in this assay (P60842 whole entry): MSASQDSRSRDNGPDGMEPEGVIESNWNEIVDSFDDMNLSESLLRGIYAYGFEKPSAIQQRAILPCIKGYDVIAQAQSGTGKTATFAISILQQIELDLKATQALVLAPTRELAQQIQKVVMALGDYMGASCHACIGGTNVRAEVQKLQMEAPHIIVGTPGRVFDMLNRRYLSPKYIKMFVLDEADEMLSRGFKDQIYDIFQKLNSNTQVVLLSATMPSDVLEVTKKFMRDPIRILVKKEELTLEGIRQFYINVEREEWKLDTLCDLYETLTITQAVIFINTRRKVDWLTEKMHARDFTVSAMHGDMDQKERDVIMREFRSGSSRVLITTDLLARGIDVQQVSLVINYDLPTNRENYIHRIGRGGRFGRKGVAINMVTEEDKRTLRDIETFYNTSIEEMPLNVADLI

[3] = target: T2, eIF4A R110M mutant (Homo sapiens, UniProt P60842, R110M); experiment: malachite green ATPase assay, eIF4A mutant; assay type: biochemical
T2 construct: 6xHis with TEV protease site (N, cleaved yes); made in house; host or cells: E. coli BL21-CodonPlus
Protocol: (§1) Furthermore, T158 is predicted to form a hydrogen bond to the […] of the 6-nitro quinoline substitution of compound 28. The ability of the 6-nitro group to form two strong interactions with the binding pocket of eIF4A is the most likely explanation for why this substitution afforded 28 such a large gain in potency for compound 28 compared to other analogs in the inhibitor series. Mutagenesis and recombinant production of mutant eIF4A protein was performed to confirm the docking pose and predicted interactions between compound 28 and its eIF4A binding pocket (FIG. 6D).
(§2) ATPase assay. Recombinant WT or mutant eIF4A was added to a clear bottom 384 well plate (Greiner) in ATPase buffer (20 mM Tris pH 7.4, 80 mM KCl, 2.5 mM MgCl2, 1 mM DTT, 1% glycerol). Compounds were added and the plate was incubated at 37° C. for 20 min. ATP/RNA solution was added to afford a 20 μL per well reaction volume with 750 nM eIF4A, 250 μM ATP, and 0.25 mg/mL Yeast RNA (Sigma) for the initial screen and dose responses, and varying concentrations of ATP and RNA for the kinetic assays. The plate was incubated for 4 h at 37° C. for the initial screen and dose responses, and at seven time points (1 hour-7 hours) for kinetic assays. 0.04% v/v (final concentration) Tween-20 was added to a Malachite Green solution, and the Malachite Green (40 μL per well) was added. The solution was incubated for 5 minutes at room temperature and Absorbance at 660 nm was read on a SpectraMax iD5 plate reader (Molecular Devices).

[4] = target: T3, eIF4A R110E mutant (Homo sapiens, UniProt P60842, R110E); experiment: malachite green ATPase assay, eIF4A mutant; assay type: biochemical
T3 construct: 6xHis with TEV protease site (N, cleaved yes); made in house; host or cells: E. coli BL21-CodonPlus
Protocol: as §1, §2

[5] = target: T4, eIF4A T158A mutant (Homo sapiens, UniProt P60842, T158A); experiment: malachite green ATPase assay, eIF4A mutant; assay type: biochemical
T4 construct: 6xHis with TEV protease site (N, cleaved yes); made in house; host or cells: E. coli BL21-CodonPlus
Protocol: as §1, §2

[6] = target: T5, eIF4A R311K mutant (Homo sapiens, UniProt P60842, R311K); experiment: malachite green ATPase assay, eIF4A mutant; assay type: biochemical
T5 construct: 6xHis with TEV protease site (N, cleaved yes); made in house; host or cells: E. coli BL21-CodonPlus
From the text: (§3) Furthermore, eIF4A R311K and R311E mutants were produced and tested with compound 28. As expected, compound 28 had no potency toward R311E, as the positively charged arginine is replaced with a negatively charged glutamic acid that repels the carboxylic acid of compound 28. However, compound 28 also had no potency for eIF4A R311K, even though it still maintains its positive charge. This may be attributed to the inability of this lysine to simultaneously provide hydrogen bond donation and ionic interactions to compound 28 due to geometrical constraints. The molecular docking also predicted that the furan of 28 may form a hydrogen bond with T109, and the butyl group may lie within a small hydrophobic groove within the binding pocket (FIG. 6A). Nevertheless, mutations to R110, T158, and R311 causing drastic losses in potency of compound 28 provided strong evidence that this was the correct binding pocket and pose for compound 28. This site, wedged between each RecA-like domain of eIF4A, is a novel binding pocket that has never been accessed by an eIF4A inhibitor.
(§4) ATPase assay. Recombinant WT or mutant eIF4A was added to a clear bottom 384 well plate (Greiner) in ATPase buffer (20 mM Tris pH 7.4, 80 mM KCl, 2.5 mM MgCl2, 1 mM DTT, 1% glycerol). […] The solution was incubated for 5 minutes at room temperature and Absorbance at 660 nm was read on a SpectraMax iD5 plate reader (Molecular Devices).

[7] = target: T6, eIF4A R311E mutant (Homo sapiens, UniProt P60842, R311E); experiment: malachite green ATPase assay, eIF4A mutant; assay type: biochemical
T6 construct: 6xHis with TEV protease site (N, cleaved yes); made in house; host or cells: E. coli BL21-CodonPlus
From the text: as §3, §4

T2 sequence (P60842 whole entry R110M): as the sequence (P60842 whole entry) above, with R110M counted along it
T5 sequence (P60842 whole entry R311K): as the sequence (P60842 whole entry) above, with R311K counted along it
T4 sequence (P60842 whole entry T158A): as the sequence (P60842 whole entry) above, with T158A counted along it
T6 sequence (P60842 whole entry R311E): as the sequence (P60842 whole entry) above, with R311E counted along it
T3 sequence (P60842 whole entry R110E): as the sequence (P60842 whole entry) above, with R110E counted along it

CCCCc1ccc(-c2ccc(-c3cc(C(=O)O)c4cc([N+](=O)[O-])ccc4n3)o2)cc1 [Compound 28, 2-(5-(4-butylphenyl)furan-2-yl)-6-nitroquinoline-4-carboxylic acid]
thermal stability of eIF4A in cells (CETSA) [1]: dose-dependent increase in thermal stability of eIF4A; also recorded: engages eIF4A in cells
competition of MANT-ATP off eIF4A [2]: not an ATP-competitive inhibitor
potency against eIF4A mutant in ATPase assay [3]: lost all potency
potency against eIF4A mutant in ATPase assay [4]: lost all potency
potency against eIF4A mutant in ATPase assay [5]: lost all potency
potency against eIF4A mutant in ATPase assay [6]: no potency
potency against eIF4A mutant in ATPase assay [7]: no potency
